The values below come from article PMC9421655, “Novel Antagonist of the Type 2 Lysophosphatidic Acid Receptor (LPA2), UCM-14216, Ameliorates Spinal Cord Injury in Mice” (Journal of Medicinal Chemistry, 2022).

Each structure is given as a SMILES string.

Data set [1] can be described thus: Parallel artificial membrane permeability assay (PAMPA). The class given is in vitro ADME. As to conditions: pH 7.4, PAMPA, PBS pH 7.4, 5 h, rt, read-out: P (cm/s), permeability value. Here is the method:
These studies were carried out as previously described with minor modifications.[41],[42] The assessment of the membrane permeability of synthesized compounds and propranolol and metoprolol as reference compounds was performed in a commercially available 96-well Corning Gentest precoated PAMPA plate system (Cultek S.L.U., Spain). Prior to use, the precoated PAMPA plate system was warmed to rt for 30 min and 300 μL of 200 μM solution of tested compound in 2% DMSO in PBS (pH 7.4) were added into wells in the receiver (donor) plate. Then, 200 μL of PBS were added into wells in the filter (acceptor) plate. The filter plate was placed on the receiver plate by slowly lowering the precoated PAMPA plate until it sits on the receiver plate. The assembly was incubated at rt for 5 h, and then buffer samples were collected carefully from each plate. The final concentrations of compound in both donor and acceptor wells were analyzed by HPLC-MS and quantification was estimated by using the peak area integration normalized with an internal standard. Permeability value of the compounds was calculated using the following formula: P (cm/s) = {−ln[1 – CA(t)/Ceq]}/[A(1/VD + 1/VA)t], where A = filter area (0.3 cm^2), VD = donor well volume (0.3 mL), VA = acceptor well volume (0.2 mL), t = incubation time (s), CA(t) = compound concentration (μM) in the acceptor well at time t, CD(t) = compound concentration (μM) in donor well at time t, and Ceq = [CD(t)VD + CA(t)VA]/(VD + VA). Assays were performed in duplicate, and the compound was tested in two different plates on different days.

For a further data set, the target named is T1, LPA2 K278A mutant (Homo sapiens, UniProt Q9HBW0, K275A).
T1 construct: host or cells: McA-RH7777 (CRL-1601, ATCC), transient, pcDNA3.1
T1 sequence (Q9HBW0 whole entry K275A): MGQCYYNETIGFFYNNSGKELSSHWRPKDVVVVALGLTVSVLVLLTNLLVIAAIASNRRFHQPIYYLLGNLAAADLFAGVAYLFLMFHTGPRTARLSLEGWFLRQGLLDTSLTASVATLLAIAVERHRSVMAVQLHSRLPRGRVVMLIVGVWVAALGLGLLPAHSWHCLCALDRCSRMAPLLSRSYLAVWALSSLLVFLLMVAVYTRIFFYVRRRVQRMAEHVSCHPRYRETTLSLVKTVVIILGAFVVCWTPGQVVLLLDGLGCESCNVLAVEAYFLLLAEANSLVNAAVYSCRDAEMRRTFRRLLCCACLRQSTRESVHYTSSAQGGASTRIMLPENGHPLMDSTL
In words: Ca2+ mobilization in McA-RH7777 cells transfected with LPA2 point mutant K278A. The class given is cell-based. For orientation: Calcium flux is commonly read through the fluorescence of an indicator in the cells.

With `Cc1[nH]nc(-c2ccc(OCc3nnn[nH]3)cc2O)c1Oc1ccc(Cl)cc1Cl` [Compound 54], in data set [1], the Papp at 5 h, 200 μM turned out to be 6.1 ×10⁻⁶ cm/s. At LPA2 K278A mutant (10 μM), the “functional activity at LPA2 K278A mutant” value is on record as “behaved as an agonist”. The “activation of LPA2 K278A mutant” value at LPA2 K278A mutant (at 10 μM, stimulation by 10 μM LPA normalized to 100%) came out at 75 ± 5%.
